Source: US20030069169A1, “Co-administration of melanocortin receptor agonist and phosphodiesterase inhibitor for treatment of cyclic-AMP associated disorders” (priority 2001, published 2003)

Key:
human MC-1R = biological target: T1, human MC-1R (Homo sapiens, UniProt Q01726); assay: MC-1R cAMP SPA assay in HBL cells; type: cell-based; details: read-out: potency as agonist of the MC-1R
T1 construct: HBL cells, a human melanoma cell line licensed from Prof; G. Ghanem; endogenous in cells; host or cells: HBL human melanoma cells
T1 sequence (Q01726 whole entry): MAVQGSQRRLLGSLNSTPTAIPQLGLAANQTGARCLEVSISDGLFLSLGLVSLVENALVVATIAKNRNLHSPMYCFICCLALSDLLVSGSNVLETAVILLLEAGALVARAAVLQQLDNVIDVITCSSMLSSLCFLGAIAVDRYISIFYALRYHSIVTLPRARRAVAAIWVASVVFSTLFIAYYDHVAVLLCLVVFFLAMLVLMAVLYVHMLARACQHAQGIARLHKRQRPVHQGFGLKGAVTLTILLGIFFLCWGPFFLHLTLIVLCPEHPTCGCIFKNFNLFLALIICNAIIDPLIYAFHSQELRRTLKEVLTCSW
Experimental: HBL cells, a human melanoma cell line licensed from Prof. G. Ghanem (Lab. of Oncology & Exp. Surgery, Free University of Brussels, Brussels, Belgium) were used as a source of the human MC-1R. cAMP was measured using the cAMP SPA Direct Screening Assay System from Amersham (RPA 559). 20,000 HBL cells were plated into each well of a half-area 96 well white plate and were used between 16-48 hours after plating. Cells were incubated at 37° C. for 15 minutes in 25 μM IBMX to inhibit phosphodieterase activity. As per kit instructions, Assay Buffer Concentrate was diluted 1 to 50 with dH2O to prepare Assay Buffer (50 mM acetate buffer containing 0.01% sodium azide). Vials containing rabbit anti-succinyl cAMP serum and the tracer, adenosine 3′,5′-cyclic phosphoric acid 2′-0-succinyl-3-[^125I] iodotyrosine methyl ester, were resuspended with 7.5 ml Assay Buffer. SPA anti-rabbit reagent (donkey anti-rabbit IgG coupled to SPA PVT beads) was resuspended with 15 ml Assay Buffer. All reagents were stored at 4° C. after reconstitution. Melanocortin ligands or compounds were prepared in DMSO and added to the IBMX-treated cells as 100×concentrated stocks. […] Plates were subsequently counted for 6 minutes per sample in a TopCount scintillation reader with background subtraction. Data was analyzed in relation to a cAMP standard curve.

[1] = system: LPS-induced TNF-α production; assay: endotoxin-induced TNF-α accumulation model in Balb/C mice; type: in vivo; details: for % Inhibition of LPS-induced TNF-α levels: balb/C mice, rolipram 10 ug/kg, NDP-MSH 2.5 mg/kg, alone or combined, co-administered with LPS by tail vein injection
Experimental: Melanocortin receptor agonists and cAMP-PDE inhibitors were evaluated for anti-inflammatory activity in vivo by using an endotoxin-induced TNF-α accumulation model in Balb/C mice. Compounds were administered either by s.c injection or co-injected with endotoxin in the tail vein. Both rolipram and melanocortin agonists inhibit endotoxin-induced TNF-α accumulation in this model.
FIG. 1 reports the results of administration of the compound of Example 11, below, in this model. Example 11 was administered by s.c. injection to five mice for each dose of 1.2 μmol/kg, 3.7 μmol/kg, 11.1 μmol/kg, 33.3 μmol/kg, and 100 μmol/kg. The compound was administered 1 hour prior to the LPS-induced challenge.
A second experiment was conducted in which the effect of the cAMP-PDE inhibitor rolipram and the melanocortin receptor agonist NDP-MSH was determined.
The four bar graphs of FIG. 2 reflect the inhibition in LPS-induced TNF-α a production in balb/C mice upon administration of (1) no agent (control); (2) 10 ug/kg ROLIPRAM (3) 2.5 mg/kg NDP-MSH and (4) 10 ug/kg ROLIPRAM in combination with 2.5 mg/kg NDP-MSH. Compounds were co-administered with LPS by tail vein injection. […] Administration of 2.5 mg/kg NDP-MSH inhibited TNF-α levels by 64%.

CCCC(=O)C1(c2ccccc2)CCN(C(=O)[C@@H](Cc2ccc(OC)cc2)NC(=O)[C@@H](N)Cc2cncn2C)CC1 [Example 11]
EC50 (human MC-1R): ~20 nM

COc1ccc(C2CNC(=O)C2)cc1OC1CCCC1 (stereo not shown) [Rolipram]
inhibition of endotoxin-induced TNF-α accumulation (in words) ([1]; Balb/C mice, s.c. injection or co-injected with endotoxin in the tail vein): inhibit
% Inhibition of LPS-induced TNF-α levels [1]: 47%

NDP-MSH
% Inhibition of LPS-induced TNF-α levels [1]: 64%
